Source: the NIST ThermoML archive (doi:10.1016/j.jct.2019.02.001)
Where “and” joins values, the source holds several entries; their conditions need not be identical. Equal entries are not always repeated. ± gives the expanded uncertainty stated by the source.

Experiment: molar enthalpy of vaporization or sublimation
Conditions: 298.15 K; Liquid; Static calorimetry

SMILES | molar enthalpy
CCCCCCCCCC [decane] | 11.9 kcal/mol and 12.5 kcal/mol
CCOC(=O)c1ccccc1N [ethyl 2-aminobenzoate] | 17 ± 0.311 kcal/mol
CCOC(=O)c1cccc(N)c1 [ethyl 3-aminobenzoate] | 19.9 ± 0.526 kcal/mol
